The supplement of paper PMC8967900

Columns and labels:
Test in all cases: selective drug sensitivity score (sDSS, relative to normal bone marrow) (sDSS (score)); higher = more potent and effective on the cell line relative to normal bone marrow cells
Details in all cases: 72 h
380 = test system: 380
697 = test system: 697
CCRF-CEM = test system: CCRF-CEM
CCRF-HSB2 = test system: CCRF-HSB2
COG-LL-317 = test system: COG-LL-317
COG-LL-319h = test system: COG-LL-319h
COG-LL-355h = test system: COG-LL-355h
COG-LL-402h = test system: COG-LL-402h
HAL-01 = test system: HAL-01
KASUMI-10 = test system: KASUMI-10
KOPN-8 = test system: KOPN-8
MHH-CALL-2 = test system: MHH-CALL-2
MHH-CALL-3 = test system: MHH-CALL-3
MOLT-4 = test system: MOLT-4
NALM-16 = test system: NALM-16
RCH-ACV = test system: RCH-ACV
SEM cells = test system: SEM cells
SUP-B15 = test system: SUP-B15
TANOUE = test system: TANOUE
TMD5 = test system: TMD5
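Also: ALL cell lines in 384-well plates, five doses spanning 10,000-fold, each plate scaled between vehicle and 100 µmol/L benzalkonium chloride controls, sDSS an adapted area-under-curve metric.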

SMILES | selective drug sensitivity score 380 | selective drug sensitivity score 697 | selective drug sensitivity score (CCRF-CEM) | selective drug sensitivity score (CCRF-HSB2) | selective drug sensitivity score (COG-LL-317) | selective drug sensitivity score (COG-LL-319h) | selective drug sensitivity score (COG-LL-355h) | selective drug sensitivity score (COG-LL-402h) | selective drug sensitivity score (HAL-01) | selective drug sensitivity score (KASUMI-10) | selective drug sensitivity score (KOPN-8) | selective drug sensitivity score (MHH-CALL-2) | selective drug sensitivity score (MHH-CALL-3) | selective drug sensitivity score (MOLT-4) | selective drug sensitivity score (NALM-16) | selective drug sensitivity score (RCH-ACV) | selective drug sensitivity score (SEM cells) | selective drug sensitivity score (SUP-B15) | selective drug sensitivity score (TANOUE) | selective drug sensitivity score (TMD5)
CC(C)N(C[C@H]1O[C@@H](n2cnc3c(N)ncnc32)[C@H](O)[C@@H]1O)[C@H]1C[C@@H](CCc2nc3cc(C(C)(C)C)ccc3[nH]2)C1 [Pinometostat] (top concentration 1000 nM) | 0 | 0 | 0 | 0 | 0 | 0 | 0 | 0 | 0 | 0 | 0 | 0 | 0 | 0 | 0 | 0 | 0 | 0 | 0 | 0
O=C(CCNC(=O)c1ccc(OC(F)(F)F)cc1)N[C@@H]1CCCc2ccccc21 [ML390] (top concentration 50000 nM) | 12.4 | 16.4 | 9.3 | 12.2 | 16.8 | 16.9 | 8.6 | 3.2 | 4.9 | 4.1 | 22.3 | 4.1 | -1.2 | 15.2 | 6.6 | 21 | 10.8 | 19.1 | 3.5 | -1.2
CCCC(CCC)C(=O)O [Valproic_acid] (top concentration 1000000 nM) | 0 | 0 | 0 | 0 | 0 | 0 | 0 | 0 | 0 | 0 | 0 | 0 | 0 | 0 | 0 | 0 | 0 | 0 | 0 | 0
O=c1sn(-c2cccc3ccccc23)c(=O)n1Cc1ccccc1 [Tideglusib] (top concentration 3000 nM) | -0.3 | -0.3 | -0.3 | -0.3 | -0.3 | -0.3 | -0.3 | -0.3 | -0.3 | 0.3 | -0.3 | 0.5 | -0.3 | -0.3 | -0.3 | -0.3 | -0.3 | -0.3 | -0.3 | -0.3
CCN(CC)CCOc1ccc(/C(=C(/Cl)c2ccccc2)c2ccccc2)cc1 [Clomifene] (top concentration 10000 nM) | 1.42 | 0.92 | -0.08 | 1.52 | 0.22 | -0.48 | 0.52 | -0.88 | 4.32 | -1.78 | 8.92 | 4.12 | 6.52 | -1.08 | -2.88 | 3.22 | 2.32 | 0.12 | -2.98 | 1.32
COc1cc2c(NC3CCN(C(C)C)CC3)nc(N3CCC(F)(F)CC3)nc2cc1OCCCN1CCCC1 [UNC0642] (top concentration 10000 nM) | 0.86 | 0.76 | -0.54 | -0.54 | 1.66 | -1.44 | 4.36 | 2.66 | -3.54 | -1.64 | -0.74 | 0.96 | -1.64 | -3.44 | -3.74 | 2.56 | -0.14 | 3.36 | -3.74 | -0.84
CCCc1cc(C)[nH]c(=O)c1CNC(=O)c1cc(-c2ccnc(N3CCN(C)CC3)c2)cc2c1cnn2C(C)C [GSK343] (top concentration 1000 nM) | 0 | 0 | 0 | 0 | 0 | 0 | 0 | 0 | 0 | 0 | 0 | 0 | 0 | 0 | 0 | 0 | 0 | 0 | 0 | 0
COc1ncc(-c2ccc3nccc(-c4ccnnc4)c3c2)cc1NS(=O)(=O)c1ccc(F)cc1F [Omipalisib] (top concentration 1000 nM) | 22.2 | 11.9 | 12 | 8.4 | 4 | 9.8 | 19.5 | 13.4 | 20.1 | 1.6 | 15.1 | 11 | 11.4 | 14 | 8.1 | 30 | 9.4 | 7.3 | -4 | -2.2
Cc1ccc(=O)n(-c2ccccc2)c1 [Pirfenidone] (top concentration 10000 nM) | 0 | 0 | 0 | 0 | 0 | 1.2 | 0 | 0 | 0 | 0 | 0 | 0 | 0 | 0 | 0 | 0 | 0 | 0 | 0 | 0
CNC(=O)c1cc(COc2nnc(Nc3ccc(Cl)cc3)c3ccoc23)ccn1 [Telatinib] (top concentration 10000 nM) | 0 | 1.6 | 0 | 0 | 0 | 0 | 0 | 0 | 1.8 | 0 | 0.9 | 0.4 | 0 | 0 | 0 | 0.2 | 0.2 | 0 | 0 | 0.9
O=C(NC[C@H](O)CN1CCc2ccccc2C1)c1cc(NC2COC2)ncn1 (top concentration 10000 nM) | -0.06 | 0.84 | -0.06 | 1.64 | 10.6 | 9.34 | -0.06 | 0.34 | -0.06 | -0.06 | -0.06 | 0.04 | -0.06 | 2.74 | -0.06 | 1.24 | -0.06 | 1.54 | -0.06 | -0.06
Cc1cc(Nc2cc(N3CCN(C)CC3)nc(Sc3ccc(NC(=O)C4CC4)cc3)n2)n[nH]1 [Tozasertib] (top concentration 10000 nM) | 19.2 | 23.2 | 21.6 | 21.9 | 21.6 | 19.2 | 2.96 | 15.4 | 8.36 | 15.6 | 19.1 | 11 | 9.66 | 15.6 | -0.34 | 17.9 | 22.3 | 19.1 | -6.64 | 14.8
Cc1cnc(-c2ccccc2C(C)C)nc1NCc1ccc(-n2ccnn2)cc1 [ML323] (top concentration 10000 nM) | -0.36 | 3.54 | 0.44 | 1.84 | 1.04 | 1.14 | 2.04 | -0.36 | 0.04 | -0.36 | 1.14 | 0.24 | -0.36 | 1.34 | 0.64 | 3.34 | 1.14 | 2.94 | 1.44 | -0.26
NS(=O)(=O)NCCNc1nonc1/C(=N/O)Nc1ccc(F)c(Br)c1 [Epacadostat] (top concentration 10000 nM) | -0.26 | -0.26 | -0.26 | -0.26 | 1.14 | -0.26 | -0.26 | -0.26 | 0.84 | -0.06 | 2.44 | 1.64 | -0.26 | -0.16 | -0.26 | -0.26 | 8.34 | -0.26 | -0.26 | 4.44
FC(F)(F)c1ccc(/C=C/c2nc(COc3ccc(CCCCn4ccnn4)cc3)co2)cc1 [Mubritinib] (top concentration 1000 nM) | 0.66 | 15.5 | 6.06 | 9.36 | 2.26 | 11.1 | 2.76 | -0.84 | 3.06 | -2.24 | 7.76 | 4.76 | 3.06 | 19.6 | 4.66 | 12.7 | 6.56 | 10.6 | 18.7 | 0.26
CCOc1ccccc1-n1c(C(C)N2CCN(C(=O)COc3ccc(Cl)cc3)CC2)nc2ccccc2c1=O (stereo not given) [Erastin] (top concentration 10000 nM) | 24.8 | 20.1 | 9.34 | 10.6 | 11.2 | 19.3 | 14.4 | 7.64 | 18.5 | -4.36 | 18.8 | 6.34 | 24.4 | -2.26 | 9.34 | 17.6 | 6.34 | 14 | -9.96 | 7.04
Cn1cc(-c2cnn3c(N)c(Br)c([C@@H]4CCCNC4)nc23)cn1 [MK-8776] (top concentration 2500 nM) | 3.64 | 1.54 | 1.04 | 0.64 | 6.14 | 1.04 | 0.54 | 2.64 | -0.46 | 2.24 | -0.46 | 2.54 | 0.04 | -1.46 | 1.14 | 3.94 | 2.64 | -0.06 | -1.46 | -1.46
N#Cc1ccc(C(c2ccc(C#N)cc2)n2cncn2)cc1 [Letrozole] (top concentration 10000 nM) | -0.04 | -0.04 | -0.04 | -0.04 | -0.04 | -0.04 | -0.04 | -0.04 | -0.04 | -0.04 | -0.04 | -0.04 | -0.04 | -0.04 | -0.04 | -0.04 | -0.04 | 0.36 | 1.16 | -0.04
